The source of these data is ChEMBL document CHEMBL5137022, “Antitumor Activity of Rutaecarpine in Human Colorectal Cancer Cells by Suppression of Wnt/β-Catenin Signaling” (J Nat Prod, 2022).

In one series the test system is HCT-116. Description: Antiproliferative activity against human HCT-116 cells harboring beta-catenin mutant assessed as reduction in cell viability measured after 72 hrs by SRB assay. Type of series: functional, cell-based. The following applies: HCT-116, 72 h.
The next series has as its system CCD-841CoN. As to the kind of experiment: Antiproliferative activity against human CCD-841CoN cells assessed as reduction in cell viability measured after 72 hrs by SRB assay. Type of series: functional, cell-based.
For series [1], the system named is LS174T. As to the kind of experiment: Inhibition of Wnt/beta-catenin transactivation signalling in human LS174T cells transfected with renilla luciferase and TOPFlash reporter gene incubated for 24 hrs by dual-luciferase assay. The following applies: dose 2.5-20 µM, DDE = dose-dependent effect. Type of series: cell-based.
In series [2] the test system is LS174T. As to the kind of experiment: Induction of cell cycle arrest in human LS174T cells assessed as accumulation of cells at G0/G1 phase at 5 uM measured after 24 hrs by RNase A/propidium iodide staining based flow cytometric analysis (reference value: 71.7 %). Type of series: functional.
Series [3] has as its system LS174T. As to the kind of experiment: Induction of cell cycle arrest in human LS174T cells assessed as accumulation of cells at S phase at 5 uM measured after 24 hrs by RNase A/propidium iodide staining based flow cytometric analysis (reference value: 14.5 %). Type of series: functional.
Series [4] relates to LS174T. As to the kind of experiment: Induction of cell cycle arrest in human LS174T cells assessed as accumulation of cells at G0/G1 phase at 20 uM measured at 48 hrs by RNase A/propidium iodide staining based flow cytometric analysis (reference value: 74.8 %). Type of series: functional.
The test system of series [5] is LS174T. As to the kind of experiment: Induction of apoptosis in human LS174T cells assessed as total cell death at 20 uM measured after 48 hrs by AnnexinV-FITC/PI staining based flowcytometry analysis relative to control. Type of series: functional.
The test system of series [6] is LS174T. Description: Induction of apoptosis in human LS174T cells assessed as total cell death at 30 uM measured after 48 hrs by AnnexinV-FITC/PI staining based flowcytometry analysis relative to control. Type of series: functional.
The test system of series [7] is LS174T. Description: Antitumor activity against human LS174T cells xenografted in BALB/c nude mouse assessed as reduction in tumor volume at 30 mg/kg, ip administered 3 times per week for 21 days by electronic caliper method. Type of series: functional. The arrangement: scale not given: the % may be the effect or the level left. The note with it: time 21 day.
Series [8] is described as follows: Toxicity in BALB/c nude mouse xenografted with human LS174T cells assessed as effect on body weight at 10 to 30 mg/kg, ip administered 3 times per week for 21 days. Type of series: organism-based. The note with it: in vivo, 504 h, dose 10-30 mg/kg, time 21 day.
The subject of the next series is Mus musculus. As to the kind of experiment: Downregulation of MMP-7 expression in tumor of BALB/c mouse xenografted with human LS174T cells at 10 to 30 mg/kg, ip administered 3 times per week for 21 days by Western blot analysis. Type of series: functional, organism-based. The note with it: dose 10-30 mg/kg, time 21.0 day.

The structures appear in SMILES notation. Calls of active or inactive are those of the source. The rule behind the calls is not given here.

Turning to `O=c1c2ccccc2nc2n1CCc1c-2[nH]c2ccccc12` [RUTAECARPINE], the IC50 in the series with HCT-116 is 31.1 µM; with CCD-841CoN, over 50 µM. Besides, the inhibition result with LS174T [1] is “Dde”. The Activity amounted to 75.8% with LS174T [2]; 10.7% in the series with LS174T [3]; 76.9% in the series with LS174T [4]; 24.7% in the series with LS174T [5]; 65.7% in the series on LS174T [6]; 54.6% with LS174T [7]. For the same compound, the Activity entry in series [8] is “Non-Toxic”. In addition, the result with Mus musculus was Active.
